Test results published in US20110172163A1, “Novel Protease Inhibitors” (QUEENSLAND UNIVERSITY OF TECHNOLOGY, priority 2008, published 2011).
Peptide text beside a SMILES is read from it. * marks the point of attachment. pNA = O=[N+]([O-])c1ccc(N*)cc1

How the values were obtained:
KLK4 = KLK4 (Homo sapiens, UniProt Q9Y5K2); assay: Kinetic studies of para-nitroanilide substrates with KLK4; format: biochemical; design: pro-region of PSA (KLK3), replacing the native KLK4 pro-region (only if the E. coli preparation was used) (N, cleaved yes); made in house; settings: relative to the parent substrate (Bz-FVR-pNA or FVQR-pNA)
Chain of KLK4 (Q9Y5K2 31-254): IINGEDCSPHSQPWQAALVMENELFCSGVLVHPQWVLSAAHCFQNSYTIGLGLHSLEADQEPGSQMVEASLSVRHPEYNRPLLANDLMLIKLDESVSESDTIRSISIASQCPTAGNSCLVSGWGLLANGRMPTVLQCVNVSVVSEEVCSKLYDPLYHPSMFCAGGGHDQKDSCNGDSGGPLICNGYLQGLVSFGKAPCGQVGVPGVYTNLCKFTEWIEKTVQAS
Procedure: Human recombinant KLK4 was expressed in E. coli using a previously described chimeric KLK4 plasmid construct where the native pro-region was replaced with the pro-region of PSA, enabling autoactivation. Protein was expressed as inclusion bodies which were isolated and solubilised as described previously to yield 90% pure KLK4. Protein refolding was performed by dilution into 100 volumes of refolding buffer I (2 M urea, 0.1M NaCl, 5 mM GSH, 0.5 mM GSSG, 10 mM benzamidine, 50 mM tris HCl pH 8.0, 2 mM CaCl2) over 44 hours before further dilution into 3 volumes refolding buffer II (refolding buffer I with 0.5 M urea 0.5 mM GSH, 0.05 mM GSSG, 2 mM CaCl2) over another 24 hours. Dialysis was performed as previously described (with additional 2 mM CaCl2 to reduce aggregation) before concentration using UNO sphere Q (Biorad) eluting with tris buffered saline (pH 7.5)/2 mM CaCl2. […]
Kinetic Studies Active site titration was carried out according to Beynon et al., replacing α1-proteinase inhibitor with soybean trypsin inhibitor. Enzymatic activity assays were performed with 4.9 nM KLK4 and substrate concentrations in the range of 0-600 μM in 300 μL of assay buffer with hydrolysis monitored over 5 minutes as described for the substrate screen. […]

[1] = comparison value, source not given; cited from earlier work

Row | SMILES | reduction of kcat (KLK4) | half life [1]
1 | CC(=O)N[C@@H](Cc1ccccc1)C(=O)N[C@H](C(=O)N[C@@H](CCCNC(=N)N)C(=O)Nc1ccc([N+](=O)[O-])cc1)C(C)C [Ac-FVR-pNA] (Ac-Phe-Val-Arg-pNA) | 47% | 
2 | CC(C)c1nc(CN(C)C(=O)N[C@H](C(=O)N[C@@H](Cc2ccccc2)C[C@H](O)[C@H](Cc2ccccc2)NC(=O)OCc2cncs2)C(C)C)cs1 [ritonavir] |  | 3.8 h
